Experimental data published in US10639253B2, “Compositions” (Symrise AG, priority 2014, dated 2020).

Legend:
Experiment in all cases: Antimicrobial activity in formulation: colony counts over 28 days, synergy by Kull equation
Details in all cases: for Relative colony counts: relative to day 0; for Colony counts: counts <10 set to 10
A. brasiliensis = type: cell-based, Aspergillus brasiliensis
Source text: Synergistic antimicrobial activity of lactate esters and other flavor and fragrance ingredients against different microorganisms relevant for cosmetics were investigated. To calculate the synergism between lactate esters and other flavor and fragrance ingredients, the Kull equation^1,2 was used ^1 Kull, […]., and R. L. Mayer (1961). Mixtures of Quaternary Ammonium Compounds and Long-chain Fatty Acids as Antifungal Agents. Applied Microbiology 9, 538-541.^2 Steinberg, D. C. (2000). Measuring Synergy. Cosmetics & Toiletries 115 (11), 59-62. SI=(Cmixture×PA)/CA+(Cmixture×PB)/CB where • SI is the Synergy Index according to Kull^1), 2) • CA is the cell count for substance A • CB is the cell count for substance B • Cmixture is the cell count for the mixture of substances A and B • PA is the proportion of the substance A in the mixture • PB is the proportion of the substance B in the mixture. […] The abbreviation “n.a.” means not applicable.

E. coli = type: cell-based, Escherichia coli
Source text: (§1) Synergistic antimicrobial activity of lactate esters and other flavor and fragrance ingredients against different microorganisms relevant for cosmetics were investigated.
(§2) To calculate the synergism between lactate esters and other flavor and fragrance ingredients, the Kull equation^1,2 was used ^1 Kull, F. C., Eismann, P. C., Sylvestrowicz, H. D., and R. L. Mayer (1961). Mixtures of Quaternary Ammonium Compounds and Long-chain Fatty Acids as Antifungal Agents. Applied Microbiology 9, 538-541.^2 Steinberg, D. C. (2000). Measuring Synergy. Cosmetics & Toiletries 115 (11), 59-62. SI=(Cmixture×PA)/CA+(Cmixture×PB)/CB where • SI is the Synergy Index according to Kull^1), 2) • CA is the cell count for substance A • CB is the cell count for substance B • Cmixture is the cell count for the mixture of substances A and B • PA is the proportion of the substance A in the mixture • PB is the proportion of the substance B in the mixture.
(§3) Colony counts of <10 were arbitrarily set to 10, in order to allow for synergy calculations with the above equation. The abbreviation “n.a.” means not applicable.

S. aureus = type: cell-based, Staphylococcus aureus
Source text: as §1, §2, §3

C. albicans = type: cell-based, Candida albicans
Source text: as §1, §2, §3

## COc1ccc(C(=O)O)cc1 [AAc, p-anisic acid]
A. brasiliensis; 0.5%, day 0
  Relative colony counts: 1.0000
A. brasiliensis; 0.5%, day 2
  Relative colony counts: 0.3514
A. brasiliensis; 0.5%, day 7
  Colony counts: 200.000 cfu/g formulation
  Relative colony counts: 0.0541
A. brasiliensis; 0.5%, day 14
  Relative colony counts: 0.3243
A. brasiliensis; 0.5%, day 28
  Relative colony counts: 0.5676
E. coli; 0.5%, day 0
  Relative colony counts: 1.0000
E. coli; 0.5%, day 2
  Colony counts: 140.000 cfu/g formulation
  Relative colony counts: 0.0609
E. coli; 0.5%, day 7
  Colony counts: 15.000 cfu/g formulation
  Relative colony counts: 0.0065
E. coli; 0.5%, day 14
  Colony counts: 3.100 cfu/g formulation
  Relative colony counts: 0.0013
E. coli; 0.5%, day 28
  Colony counts: 10 cfu/g formulation
  Relative colony counts: 0.0000
S. aureus; 0.5%, day 0
  Relative colony counts: 1.0000
S. aureus; 0.5%, day 2
  Relative colony counts: 0.8095
S. aureus; 0.5%, day 7
  Colony counts: 130 cfu/g formulation
  Relative colony counts: 0.0001
S. aureus; 0.5%, day 14
  Colony counts: 10 cfu/g formulation
  Relative colony counts: 0.0000
S. aureus; 0.5%, day 28
  Colony counts: 10 cfu/g formulation
  Relative colony counts: 0.0000

## COc1ccc(C=O)cc1 [AAld, p-anisic aldehyde]
A. brasiliensis; 0.5%, day 0
  Relative colony counts: 1.0000
A. brasiliensis; 0.5%, day 2
  Colony counts: 560.000 cfu/g formulation
  Relative colony counts: 0.1931
A. brasiliensis; 0.5%, day 7
  Colony counts: 140.000 cfu/g formulation
  Relative colony counts: 0.0483
A. brasiliensis; 0.5%, day 14
  Colony counts: 2.100 cfu/g formulation
  Relative colony counts: 0.0007
A. brasiliensis; 0.5%, day 28
  Colony counts: 15 cfu/g formulation
  Relative colony counts: 0.0000

## CCCCCOC(=O)C(C)O (stereo not shown) [AL, amyl lactate]
A. brasiliensis; 1%, day 0
  Relative colony counts: 1.0000
A. brasiliensis; 1%, day 2
  Colony counts: 160.000 cfu/g formulation
  Relative colony counts: 0.0552
A. brasiliensis; 1%, day 7
  Relative colony counts: 0.4828
A. brasiliensis; 1%, day 14
  Colony counts: 320.000 cfu/g formulation
  Relative colony counts: 0.1103
A. brasiliensis; 1%, day 28
  Colony counts: 660 cfu/g formulation
  Relative colony counts: 0.0002
S. aureus; 1%, day 0
  Relative colony counts: 1.0000
S. aureus; 1%, day 2
  Colony counts: 21.000 cfu/g formulation
  Relative colony counts: 0.0072
S. aureus; 1%, day 7
  Colony counts: 15 cfu/g formulation
  Relative colony counts: 0.0000
S. aureus; 1%, day 14
  Colony counts: 10 cfu/g formulation
  Relative colony counts: 0.0000
S. aureus; 1%, day 28
  Colony counts: 10 cfu/g formulation
  Relative colony counts: 0.0000

## CC(O)C(=O)OCc1ccccc1 (stereo not shown) [BL, benzyl lactate]
A. brasiliensis; 1%, day 0
  Relative colony counts: 1.0000
A. brasiliensis; 1%, day 2
  Colony counts: 270.000 cfu/g formulation
  Relative colony counts: 0.0931
A. brasiliensis; 1%, day 7
  Colony counts: 4.500 cfu/g formulation
  Relative colony counts: 0.0016
A. brasiliensis; 1%, day 14
  Colony counts: 110 cfu/g formulation
  Relative colony counts: 0.0000
A. brasiliensis; 1%, day 28
  Colony counts: 10 cfu/g formulation
  Relative colony counts: 0.0000
S. aureus; 1%, day 0
  Relative colony counts: 1.0000
S. aureus; 1%, day 2
  Colony counts: 1.600 cfu/g formulation
  Relative colony counts: 0.0006
S. aureus; 1%, day 7
  Colony counts: 10 cfu/g formulation
  Relative colony counts: 0.0000
S. aureus; 1%, day 14
  Colony counts: 10 cfu/g formulation
  Relative colony counts: 0.0000
S. aureus; 1%, day 28
  Colony counts: 10 cfu/g formulation
  Relative colony counts: 0.0000

## CCCCOC(=O)C(C)O (stereo not shown) [BuL, butyl lactate]
A. brasiliensis; 1.25%, day 0
  Relative colony counts: 1.0000
A. brasiliensis; 1.25%, day 2
  Colony counts: 730.000 cfu/g formulation
  Relative colony counts: 0.2517
A. brasiliensis; 1.25%, day 7
  Relative colony counts: 0.5517
A. brasiliensis; 1.25%, day 14
  Relative colony counts: 0.3793
A. brasiliensis; 1.25%, day 28
  Colony counts: 150.000 cfu/g formulation
  Relative colony counts: 0.0517
C. albicans; 1.25%, day 0
  Relative colony counts: 1.0000
C. albicans; 1.25%, day 2
  Colony counts: 740.000 cfu/g formulation
  Relative colony counts: 0.3083
C. albicans; 1.25%, day 7
  Colony counts: 430 cfu/g formulation
  Relative colony counts: 0.0002
C. albicans; 1.25%, day 14
  Colony counts: 10 cfu/g formulation
  Relative colony counts: 0.0000
C. albicans; 1.25%, day 28
  Colony counts: 10 cfu/g formulation
  Relative colony counts: 0.0000
E. coli; 1.25%, day 0
  Relative colony counts: 1.0000
E. coli; 1.25%, day 2
  Colony counts: 13.000 cfu/g formulation
  Relative colony counts: 0.0041
E. coli; 1.25%, day 7
  Colony counts: 10 cfu/g formulation
  Relative colony counts: 0.0000
E. coli; 1.25%, day 14
  Colony counts: 10 cfu/g formulation
  Relative colony counts: 0.0000
E. coli; 1.25%, day 28
  Colony counts: 10 cfu/g formulation
  Relative colony counts: 0.0000

## OCCCc1ccccc1 [PP, 3-phenylpropanol]
C. albicans; 0.5%, day 0
  Relative colony counts: 1.0000
C. albicans; 0.5%, day 2
  Relative colony counts: 0.4583
C. albicans; 0.5%, day 7
  Colony counts: 930.000 cfu/g formulation
  Relative colony counts: 0.3875
C. albicans; 0.5%, day 14
  Colony counts: 31.000 cfu/g formulation
  Relative colony counts: 0.0129
C. albicans; 0.5%, day 28
  Colony counts: 10 cfu/g formulation
  Relative colony counts: 0.0000
S. aureus; 0.5%, day 0
  Relative colony counts: 1.0000
S. aureus; 0.5%, day 2
  Colony counts: 23.000 cfu/g formulation
  Relative colony counts: 0.0079
S. aureus; 0.5%, day 7
  Colony counts: 80 cfu/g formulation
  Relative colony counts: 0.0000
S. aureus; 0.5%, day 14
  Colony counts: 10 cfu/g formulation
  Relative colony counts: 0.0000
S. aureus; 0.5%, day 28
  Colony counts: 10 cfu/g formulation
  Relative colony counts: 0.0000
